Source: patent publication US9227971B2, “Pyrazolo[1,5-a]pyrimidine compounds as mTOR inhibitors” (Merck Sharp & Dohme Corp., priority 2010, dated 2016)
Read-outs that look alike come from different tables or passages of the source.

Legend:
[1] = system: phosphorylated 4E-BP1 Thr37/46 (p4E-BP1 Thr37/46), mTORC1 activity, PC3 cells; test: mTOR target engagement assay, immunofluorescent cell-based, p4E-BP1 Thr37/46 readout (mTORC1 activity); details: PC3 cells, read-out: p4E-BP1 Thr37/46 IC50
How it was run: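 Read-out is fluorescence intensity of immunostained p4E-BP1 Thr37/46 in fixed PC3 cells, fitted to a logistic curve for IC50 with DMSO-only wells as top. Cells had been exposed to serial compound dilutions for ninety minutes at 37° C in 5% FBS medium with 0.25% DMSO.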

[2] = system: phosphorylated AKT Ser473 (pAKT S473), mTORC2 activity, PC3 cells; test: mTOR target engagement assay, immunofluorescent cell-based, pAKT S473 readout (mTORC2 activity); details: PC3 cells
How it was run: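 After blocking, cells were stained overnight at 4 °C with anti-pAKT S473 antibody, then a fluorescent secondary; inhibition was read as reduced fluorescence intensity.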

## Cc1nnc(C(=O)N2[C@@H]3CC[C@H]2C[C@H](c2nc4c(-c5ccc(-c6ccc(F)cc6)nc5)cnn4c(N)c2S(C)(=O)=O)C3)[nH]1 [Compound 3.119, ((1R,3s,5S)-3-(7-amino-3-(6-(4-fuorophenyl)pyridin-3-yl)-6-(methylsulfonyl)pyrazolo[1,5-a]pyrimidin-5-yl)-8-azabicyclo[3.2.1]octan-8-yl)(5-methyl-4H-1,2,4-triazol-3-yl)methanone]
[1]; Table 3-1
  IC50: 1 to 100 nM
[2]; Table 3-1
  IC50: 1 to 100 nM

## CS(=O)(=O)c1c([C@@H]2C[C@H]3CC[C@@H](C2)N3C(=O)c2cc(N)n[nH]2)nc2c(-c3ccc(-c4ccc(F)cc4)nc3)cnn2c1N [Compound 3.120, (3-amino-1H-pyrazol-5-yl)((1R,3s,5S)-3-(7-amino-3-(6-(4-fluorophenyl)pyridin-3-yl)-6-(methylsulfonyl)pyrazolo[1,5-a]pyrimidin-5-yl)-8-azabicyclo[3.2.1]octan-8-yl)methanone]
[1]; Table 3-1
  IC50: 1 to 100 nM
[2]; Table 3-1
  IC50: 1 to 100 nM

## CS(=O)(=O)c1c([C@@H]2C[C@H]3CC[C@@H](C2)N3C(=O)c2nnc[nH]2)nc2c(-c3cnn(-c4ccccn4)c3)cnn2c1N [Compound 3.123, ((1R,3s,5S)-3-(7-amino-6-(methylsulfonyl)-3-(1-(pyridin-2-yl)-1H-pyrazol-4-yl)pyrazolo[1,5-a]pyrimidin-5-yl)-8-azabicyclo[3.2.1]octan-8-yl)(4H-1,2,4-triazol-3-yl)methanone]
[1]; Homo sapiens, PC-3, Table 3-1
  IC50: 100 to 1000 nM
[2]; Homo sapiens, PC-3, Table 3-1
  IC50: 100 to 1000 nM

## CS(=O)(=O)c1c([C@@H]2C[C@H]3CC[C@@H](C2)N3C(=O)CO)nc2c(-c3cnn(-c4ccccn4)c3)cnn2c1N [Compound 3.124, 1-((1R,3s,5S)-3-(7-amino-6-(methylsulfonyl)-3-(1-(pyridin-2-yl)-1H-pyrazol-4-yl)pyrazolo[1,5-a]pyrimidin-5-yl)-8-azabicyclo[3.2.1]octan-8-yl)-2-hydroxyethanone]
[1]; Homo sapiens, PC-3, Table 3-1
  IC50: 1000 to 10000 nM
[2]; Homo sapiens, PC-3, Table 3-1
  IC50: 100 to 1000 nM

## CS(=O)(=O)c1c([C@@H]2C[C@H]3CC[C@@H](C2)N3C(N)=O)nc2c(-c3ccc(-c4ccc(F)cc4F)nc3)cnn2c1N [Compound 3.125, (1R,3s,5S)-3-(7-amino-3-(6-(2,4-difluorophenyl)pyridin-3-yl)-6-(methylsulfonyl)pyrazolo[1,5-a]pyrimidin-5-yl)-8-azabicyclo[3.2.1]octane-8-carboxamide]
[1]; Homo sapiens, PC-3, Table 3-1
  IC50: 100 to 1000 nM
[2]; Homo sapiens, PC-3, Table 3-1
  IC50: 1 to 100 nM

## CS(=O)(=O)c1c([C@@H]2C[C@H]3CC[C@@H](C2)N3C(N)=O)nc2c(-c3ccc(-c4ccc(F)cc4)nc3)cnn2c1N [Compound 3.126, (1R,3s,5S)-3-(7-amino-3-(6-(4-fluorophenyl)pyridin-3-yl)-6-(methylsulfonyl)pyrazolo[1,5-a]pyrimidin-5-yl)-8-azabicyclo[3.2.1]octane-8-carboxamide]
[1]; Homo sapiens, PC-3, Table 3-1
  IC50: 1 to 100 nM
[2]; Homo sapiens, PC-3, Table 3-1
  IC50: 1 to 100 nM

## Cc1nnc(C(=O)N2[C@@H]3CC[C@H]2C[C@H](c2nc4c(-c5ccc(-c6ccc(F)cc6F)nc5)cnn4c(N)c2S(C)(=O)=O)C3)[nH]1 [Compound 3.127, ((1R,3s,5S)-3-(7-amino-3-(6-(2,4-difluorophenyl)pyridin-3-yl)-6-(methylsulfonyl)pyrazolo[1,5-a]pyrimidin-5-yl)-8-azabicyclo[3.2.1]octan-8-yl)(5-methyl-4H-1,2,4-triazol-3-yl)methanone]
[1]; Homo sapiens, PC-3, Table 3-1
  IC50: 1 to 100 nM
[2]; Homo sapiens, PC-3, Table 3-1
  IC50: 100 to 1000 nM

## CS(=O)(=O)c1c([C@@H]2C[C@H]3CC[C@@H](C2)N3C(=O)CO)nc2c(-c3ccc(-c4ccc(F)cc4F)nc3)cnn2c1N [Compound 3.128, 1-((1R,3s,5S)-3-(7-amino-3-(6-(2,4-difluorophenyl)pyridin-3-yl)-6-(methylsulfonyl)pyrazolo[1,5-a]pyrimidin-5-yl)-8-azabicyclo[3.2.1]octan-8-yl)-2-hydroxyethanone]
[1]; Homo sapiens, PC-3, Table 3-1
  IC50: 100 to 1000 nM
[2]; Homo sapiens, PC-3, Table 3-1
  IC50: 100 to 1000 nM

## CS(=O)(=O)c1c([C@@H]2C[C@H]3CC[C@@H](C2)N3C(=O)c2cc(N)n[nH]2)nc2c(-c3ccc(-c4ccc(F)cc4F)nc3)cnn2c1N [Compound 3.129, (3-amino-1H-pyrazol-5-yl)((1R,3s,5S)-3-(7-amino-3-(6-(2,4-difluorophenyl)pyridin-3-yl)-6-(methylsulfonyl)pyrazolo[1,5-a]pyrimidin-5-yl)-8-azabicyclo[3.2.1]octan-8-yl)methanone]
[1]; Homo sapiens, PC-3, Table 3-1
  IC50: 1 to 100 nM
[2]; Homo sapiens, PC-3, Table 3-1
  IC50: 1 to 100 nM

## CCNC(=O)N1[C@@H]2CC[C@H]1C[C@H](c1nc3c(-c4ccc(-c5ccccc5F)nc4)cnn3c(N)c1S(C)(=O)=O)C2 [Compound 3.130, (1R,3s,5S)-3-(7-amino-3-(6-(2-fluorophenyl)pyridin-3-yl)-6-(methylsulfonyl)pyrazolo[1,5-a]pyrimidin-5-yl)-N-ethyl-8-azabicyclo[3.2.1]octane-8-carboxamide]
[1]; Homo sapiens, PC-3, Table 3-1
  IC50: 100 to 1000 nM
[2]; Homo sapiens, PC-3, Table 3-1
  IC50: 100 to 1000 nM

## CS(=O)(=O)c1c([C@@H]2C[C@H]3CC[C@@H](C2)N3C(N)=O)nc2c(-c3ccc(-c4ccccc4F)nc3)cnn2c1N [Compound 3.131, (1R,3s,5S)-3-(7-amino-3-(6-(2-fluorophenyl)pyridin-3-yl)-6-(methylsulfonyl)pyrazolo[1,5-a]pyrimidin-5-yl)-8-azabicyclo[3.2.1]octane-8-carboxamide]
[1]; Homo sapiens, PC-3, Table 3-1
  IC50: 1 to 100 nM
[2]; Homo sapiens, PC-3, Table 3-1
  IC50: 1 to 100 nM

## CS(=O)(=O)c1c([C@@H]2C[C@H]3CC[C@@H](C2)N3C(=O)CO)nc2c(-c3ccc(-c4ccccc4F)nc3)cnn2c1N [Compound 3.132, 1-((1R,3a,5S)-3-(7-amino-3-(6-(2-fluorophenyl)pyridin-3-yl)-6-(methylsulfonyl)pyrazolo[1,5-a]pyrimidin-5-yl)-8-azabicyclo[3.2.1]octan-8-yl)-2-hydroxyethanone]
[1]; Homo sapiens, PC-3, Table 3-1
  IC50: 100 to 1000 nM
[2]; Homo sapiens, PC-3, Table 3-1
  IC50: 1 to 100 nM

## Cc1nnc(C(=O)N2[C@@H]3CC[C@H]2C[C@H](c2nc4c(-c5ccc(-c6ccccc6F)nc5)cnn4c(N)c2S(C)(=O)=O)C3)[nH]1 [Compound 3.133, ((1R,3s,5S)-3-(7-amino-3-(6-(2-fluorophenyl)pyridin-3-yl)-6-(methylsulfonyl)pyrazolo[1,5-a]pyrimidin-5-yl)-8-azabicyclo[3.2.1]octan-8-yl)(5-methyl-4H-1,2,4-triazol-3-yl)methanone]
[1]; Homo sapiens, PC-3, Table 3-1
  IC50: 1 to 100 nM
[2]; Homo sapiens, PC-3, Table 3-1
  IC50: 1 to 100 nM

## CS(=O)(=O)c1c([C@@H]2C[C@H]3CC[C@@H](C2)N3C(=O)c2cc(N)n[nH]2)nc2c(-c3ccc(-c4ccccc4F)nc3)cnn2c1N [Compound 3.134]
[1]; Table 3-1
  IC50: 1 to 100 nM
[2]; Table 3-1
  IC50: 1 to 100 nM

## CS(=O)(=O)c1c([C@@H]2C[C@H]3CC[C@@H](C2)N3C(=O)c2ccn[nH]2)nc2c(-c3ccc(-c4ccccc4F)nc3)cnn2c1N [Compound 3.135, ((1R,3s,5S)-3-(7-amino-3-(6-(2-fluorophenyl)pyridin-3-yl)-6-(methylsulfonyl)pyrazolo[1,5-a]pyrimidin-5-yl)-8-azabicyclo[3.2.1]octan-8-yl)(1H-pyrazol-5-yl)methanone]
[1]; Homo sapiens, PC-3, Table 3-1
  IC50: 1 to 100 nM
[2]; Homo sapiens, PC-3, Table 3-1
  IC50: 1 to 100 nM

## CS(=O)(=O)c1c([C@@H]2C[C@H]3CC[C@@H](C2)N3C(=O)c2nnc[nH]2)nc2c(-c3cnc(-c4ccccc4)nc3)cnn2c1N [Compound 3.136, ((1R,3s,5S)-3-(7-amino-6-(methylsulfonyl)-3-(2-phenylpyrimidin-5-yl)pyrazolo[1,5-a]pyrimidin-5-yl)-8-azabicyclo[3.2.1]octan-8-yl)(4H-1,2,4-triazol-3-yl)methanone]
[1]; Homo sapiens, PC-3, Table 3-1
  IC50: 1 to 100 nM
[2]; Homo sapiens, PC-3, Table 3-1
  IC50: 1 to 100 nM

## Cc1nc(N)ncc1C(=O)N1[C@@H]2CC[C@H]1C[C@H](c1nc3c(-c4ccc(-c5ccccc5)nc4)cnn3c(N)c1S(C)(=O)=O)C2 [Compound 3.137, (2-amino-4-methylpyrimidin-5-yl)((1R,3a,5S)-3-(7-amino-6-(methylsulfonyl)-3-(6-phenylpyridin-3-yl)pyrazolo[1,5-a]pyrimidin-5-yl)-8-azabicyclo[3.2.1]octan-8-yl)methanone]
[1]; Homo sapiens, PC-3, Table 3-1
  IC50: 1000 to 10000 nM
[2]; Homo sapiens, PC-3, Table 3-1
  IC50: 1000 to 10000 nM

## CS(=O)(=O)c1c([C@@H]2C[C@H]3CC[C@@H](C2)N3C(=O)c2coc(=O)[nH]2)nc2c(-c3ccc(-c4ccccc4)nc3)cnn2c1N [Compound 3.138, 4-((1R,3s,5S)-3-(7-amino-6-(methylsulfonyl)-3-(6-phenylpyridin-3-yl)pyrazolo[1,5-a]pyrimidin-5-yl)-8-azabicyclo[3.2.1]octane-8-carbonyl)oxazol-2(3H)-one]
[1]; Homo sapiens, PC-3, Table 3-1
  IC50: 100 to 1000 nM
[2]; Homo sapiens, PC-3, Table 3-1
  IC50: 100 to 1000 nM

## CS(=O)(=O)c1c([C@@H]2C[C@H]3CC[C@@H](C2)N3C(=O)c2c[nH]c(=O)[nH]2)nc2c(-c3ccc(-c4ccccc4)nc3)cnn2c1N [Compound 3.139, 4-((1R,3s,5S)-3-(7-amino-6-(methylsulfonyl)-3-(6-phenylpyridin-3-yl)pyrazolo[1,5-a]pyrimidin-5-yl)-8-azabicyclo[3.2.1]octane-8-carbonyl)-1H-imidazol-2(3H)-one]
[1]; Homo sapiens, PC-3, Table 3-1
  IC50: 100 to 1000 nM
[2]; Homo sapiens, PC-3, Table 3-1
  IC50: 1 to 100 nM

## CS(=O)(=O)c1c([C@@H]2C[C@H]3CC[C@@H](C2)N3C(=O)c2cccc(=O)[nH]2)nc2c(-c3ccc(-c4ccccc4)nc3)cnn2c1N [Compound 3.140, 6-((1R,3s,5S)-3-(7-amino-6-(methylsulfonyl)-3-(6-phenylpyridin-3-yl)pyrazolo[1,5-a]pyrimidin-5-yl)-8-azabicyclo[3.2.1]octane-8-carbonyl)pyridin-2(1H)-one]
[1]; Homo sapiens, PC-3, Table 3-1
  IC50: 100 to 1000 nM
[2]; Homo sapiens, PC-3, Table 3-1
  IC50: 1 to 100 nM

## CS(=O)(=O)c1c([C@@H]2C[C@H]3CC[C@@H](C2)N3C(=O)[C@@H]2COC(=O)N2)nc2c(-c3ccc(-c4ccccc4)nc3)cnn2c1N [Compound 3.141, (S)-4-((1R,3R,5S)-3-(7-amino-6-(methylsulfonyl)-3-(6-phenylpyridin-3-yl)pyrazolo[1,5-a]pyrimidin-5-yl)-8-azabicyclo[3.2.1]octane-8-carbonyl)oxazolidin-2-one]
[1]; Homo sapiens, PC-3, Table 3-1
  IC50: 1000 to 10000 nM
[2]; Homo sapiens, PC-3, Table 3-1
  IC50: 1000 to 10000 nM
